Reference: PubChem BioAssay AID1919005 (Molecular Pharmacology Branch, DTP, NCI, 2023)
pIC50: −log10 of the molar value. Where “and” joins values, the source holds several entries; their conditions need not be identical. Identical values can stand only once. Each block holds one compound with its values, some of them ahead of it.

Tested on: 855422-203-R-J1-PDC complex spheroid growth
Test: Anticancer human tumor 855422-203-R-J1-PDC patient-derived bladder carcinoma cell line growth inhibition [AhR]
Conditions: for viability, T/C: stronger effect = lower value
Summary of the method: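 Spheroids combined tumor cells with HUVEC endothelial cells and human MSCs as stroma. AhR antagonists were paired with standard or investigational drugs, each dosed in half-log steps down from near clinical Cmax, or from 10 microM where Cmax was unknown.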

[1] = curve of first compound, second compound 0.1 µM
[2] = curve of first compound, second compound 0.316 µM
[3] = curve of first compound, second compound 1 µM
[4] = curve of first compound, second compound 3.16 µM
[5] = curve of first compound, second compound 10 µM
[6] = second compound 0.1 µM, first compound 0.000949 µM
[7] = second compound 0.1 µM, first compound 0.003 µM
[8] = second compound 0.1 µM, first compound 0.00949 µM
[9] = second compound 0.1 µM, first compound 0.03 µM
[10] = second compound 0.1 µM, first compound 0.0949 µM
[11] = second compound 0.1 µM, first compound 0.3 µM
[12] = second compound 0.316 µM, first compound 0.000949 µM
[13] = second compound 0.316 µM, first compound 0.003 µM
[14] = second compound 0.316 µM, first compound 0.00949 µM
[15] = second compound 0.316 µM, first compound 0.03 µM
[16] = second compound 0.316 µM, first compound 0.0949 µM
[17] = second compound 0.316 µM, first compound 0.3 µM
[18] = second compound 1 µM, first compound 0.000949 µM
[19] = second compound 1 µM, first compound 0.003 µM
[20] = second compound 1 µM, first compound 0.00949 µM
[21] = second compound 1 µM, first compound 0.03 µM
[22] = second compound 1 µM, first compound 0.0949 µM
[23] = second compound 1 µM, first compound 0.3 µM
[24] = second compound 3.16 µM, first compound 0.000949 µM
[25] = second compound 3.16 µM, first compound 0.003 µM
[26] = second compound 3.16 µM, first compound 0.00949 µM
[27] = second compound 3.16 µM, first compound 0.03 µM
[28] = second compound 3.16 µM, first compound 0.0949 µM
[29] = second compound 3.16 µM, first compound 0.3 µM
[30] = second compound 10 µM, first compound 0.000949 µM
[31] = second compound 10 µM, first compound 0.003 µM
[32] = second compound 10 µM, first compound 0.00949 µM
[33] = second compound 10 µM, first compound 0.03 µM
[34] = second compound 10 µM, first compound 0.0949 µM
[35] = second compound 10 µM, first compound 0.3 µM
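Further: spheroids exposed to agents for seven days before readout.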
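Wherever viability, T/C is given: percent of DMSO vehicle control luminescence viability.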

- pIC50 [1]: 8.28
- pIC50 [2]: 8.35
- pIC50 [3]: 8.47
- pIC50 [4]: 8.72
- pIC50 [5]: 8.83
Compound: CCc1c2c(nc3ccc(O)cc13)-c1cc3c(c(=O)n1C2)COC(=O)[C@]3(O)CC + CC(CO)NC(=O)c1cc(-c2ccc(Cl)cc2)nn(-c2cnn(C)c2)c1=O
- viability, T/C [6]: 95.5%
- viability, T/C [7]: 78.9%
- viability, T/C [8]: 19.4%
- viability, T/C [9]: 13.2%
- viability, T/C [10]: 9.5%
- viability, T/C [11]: 6.28%
- viability, T/C [12]: 85.6%
- viability, T/C [13]: 68.7%
- viability, T/C [14]: 15.6%
- viability, T/C [15]: 12.3%
- viability, T/C [16]: 6.86%
- viability, T/C [17]: 4.21%
- viability, T/C [18]: 86.5%
- viability, T/C [19]: 54.7%
- viability, T/C [20]: 13.9%
- viability, T/C [21]: 11%
- viability, T/C [22]: 6.82%
- viability, T/C [23]: 4.24%
- viability, T/C [24]: 72.2%
- viability, T/C [25]: 36.3%
- viability, T/C [26]: 12.8%
- viability, T/C [27]: 10.2%
- viability, T/C [28]: 6.61%
- viability, T/C [29]: 4.22%
- viability, T/C [30]: 65.5%
- viability, T/C [31]: 25.4%
- viability, T/C [32]: 12.6%
- viability, T/C [33]: 9.84%
- viability, T/C [34]: 6.11%
- viability, T/C [35]: 4.31%

- pIC50 (curve of compound): 6.38 and 6.23 and 6.26
Compound: COc1cc(C2c3cc4c(cc3C(OC3OC5COC(C)OC5C(O)C3O)C3COC(=O)C23)OCO4)cc(OC)c1O (configuration not stated)
- viability, T/C (compound 0.0316 µM): 96.6% and 94.9% and 94.2%
- viability, T/C (compound 0.1 µM): 98.4% and 97.4% and 106%
- viability, T/C (compound 0.316 µM): 61% and 81.5% and 67.7%
- viability, T/C (compound 1 µM): 14.2% and 22% and 29.3%
- viability, T/C (compound 3.16 µM): 9.05% and 11.6% and 17.3%
- viability, T/C (compound 10 µM): 4.28% and 5.57% and 7.14%

- pIC50 (curve of compound): < 5.00
Compound: CC(C)c1c(-c2ccccc2)nc2c(C#N)c[nH]n2c1=O
- viability, T/C (compound 0.0316 µM): 105% and 98.6% and 111%
- viability, T/C (compound 0.1 µM): 97.8% and 96% and 112%
- viability, T/C (compound 0.316 µM): 111% and 97% and 96.5%
- viability, T/C (compound 1 µM): 99.3% and 89.9% and 105%
- viability, T/C (compound 3.16 µM): 105% and 98.1% and 98.8%
- viability, T/C (compound 10 µM): 77.9% and 92% and 96.4%

- pIC50 (compound alone, run of 05/31/2022): < 5.00
Compound: CC(CO)NC(=O)c1cc(-c2ccc(Cl)cc2)nn(-c2cnn(C)c2)c1=O (configuration not stated)
- viability, T/C (compound 0.1 µM): 92.2% [middle of 20 runs]
- viability, T/C (compound 1 µM): 94.9% [middle of 21 runs]
- viability, T/C (compound 3.16 µM): 96.8% [middle of 19 runs]
- viability, T/C (compound 10 µM): 91.4% [middle of 19 runs]

- pIC50 [1]: 8.23
- pIC50 [2]: 8.23
- pIC50 [3]: 8.25
- pIC50 [4]: 8.28
- pIC50 [5]: 8.38
Compound: CC(C)CC(NC(=O)C(Cc1ccccc1)NC(=O)c1cnccn1)B(O)O (configuration not stated) + Cc1ccccc1N=Nc1ccc(NC(=O)c2ccnn2C)c(C)c1
- viability, T/C [6]: 108%
- viability, T/C [7]: 135%
- viability, T/C [8]: 0.86%
- viability, T/C [9]: 0.84%
- viability, T/C [10]: 1.35%
- viability, T/C [11]: 0.12%
- viability, T/C [12]: 118%
- viability, T/C [13]: 121%
- viability, T/C [14]: 0.21%
- viability, T/C [15]: 0.02%
- viability, T/C [16]: 0.02%
- viability, T/C [17]: 0.1%
- viability, T/C [18]: 108%
- viability, T/C [19]: 115%
- viability, T/C [20]: 0.18%
- viability, T/C [21]: 0.04%
- viability, T/C [22]: 0.02%
- viability, T/C [23]: 0.11%
- viability, T/C [24]: 100%
- viability, T/C [25]: 94.6%
- viability, T/C [26]: 0.91%
- viability, T/C [27]: 0.03%
- viability, T/C [28]: 0.09%
- viability, T/C [29]: 0.09%
- viability, T/C [30]: 85%
- viability, T/C [31]: 69.6%
- viability, T/C [32]: 0.28%
- viability, T/C [33]: 0.11%
- viability, T/C [34]: 0.12%
- viability, T/C [35]: 0.16%

- pIC50 (compound alone, run of 06/14/2022): < 5.00
Compound: Cc1ccccc1N=Nc1ccc(NC(=O)c2ccnn2C)c(C)c1
- viability, T/C (compound 0.1 µM): 98.6% [middle of 20 runs]
- viability, T/C (compound 0.316 µM): 98.5% [middle of 20 runs]
- viability, T/C (compound 1 µM): 101% [middle of 20 runs]
- viability, T/C (compound 3.16 µM): 94.4% [middle of 20 runs]
- viability, T/C (compound 10 µM): 80.9% [middle of 20 runs]

- pIC50 (curve of compound): 7.22 and 7.14 and 7.02
Compound: CC[C@@]1(O)C(=O)OCc2c1cc1n(c2=O)Cc2cc3c(CN(C)C)c(O)ccc3nc2-1
- viability, T/C (compound 0.000316 µM): 93% and 97.1% and 101%
- viability, T/C (compound 0.001 µM): 114% and 106% (2×)
- viability, T/C (compound 0.00316 µM): 98.4% and 103% and 105%
- viability, T/C (compound 0.01 µM): 99.3% and 101% and 106%
- viability, T/C (compound 0.0316 µM): 85% and 93.4% and 94.9%
- viability, T/C (compound 0.1 µM): 22.1% and 33.6% and 47.4%
